Results taken from patent US20260199242A1, “PROCESSES FOR MAKING CYCLIC LIPID IMPLANTS FOR INTRAOCULAR USE” (Allergan, Inc., priority 2006, published 2026).

How the values were obtained:
[1] = Potency of bimatoprost from melt-extruded implants as percent of label strength by HPLC (FIG. 1); type: physicochemical
Method: Typical extrusion temperatures for a PLGA implant are from about 85° C. to about 110° C. […] As shown by FIG. 1, five different formulation bimatoprost containing sustained release implants or drug delivery systems (“DDS”) were made. Proceeding from left to right to left along the x axis of FIG. 1 these five formulations were: The theoretical maximum potency of bimatoprost is by definition equal to the label strength (“LS”) of the bimatoprost. For example, the label strength of a one milligram implant which comprises 150 μg of bimatoprost is 150 μg. […] We determined the potency of the bimatoprost released from the implants made as a percent of their label strength using HPLC (high pressure liquid chromatography). Thus, the bimatoprost implants (each weighing about 1 mg) made were dissolved in 0.5 mL acetonitrile in a 10 mL volumetric flask and sonicated for 5 min. The flask was then filled to volume with diluent (72:18:10 water:acetonitrile:methanol); mixed well, and transferred to a HPLC vial for analysis. The HPLC analysis was performed using a Waters Alliance 2695 HPLC system, Waters Symmetry®C18 reverse-phase column 4.6 mm×75 mm, and a Waters 2487 UV detector. The conditions for analysis were flow rate of 1.5 mL/minute, UV wavelength of 210 nm, column temperature of 30° C. and mobile phase of 72:18:10 (water:acetonitrile:methanol, v/v/v) with 0.03% (w/v) trifluoroacetic acid. The injection volume of samples and standards assayed was 75 uL with a cycle time of 45 min.

[2] = lower temperature and faster rate in a low pH environment; cited from earlier work
[3] = cited from earlier work
[4] = system: patients with age-related macular degeneration (ARMD); details: infusion; cited from earlier work

Row | potency of the bimatoprost released from the DDS (percent of label strength) ([1]; DDS made by melt extrusion carried out at 57° C.) | potency of the bimatoprost released from the DDS (percent of label strength) ([1]; DDS made by melt extrusion carried out at 85° C.) | bimatoprost therapeutically inactive (loss of potency) ([1]; extrusion temperature of about 80° C. or higher) [%] | Compound | temperature above which bimatoprost can degrade if heated [2] | solubility in water [3] | visual acuity [4]
1 | more than 90% | about 40% | ≤ 50 | CCNC(=O)CCC/C=C\C[C@@H]1[C@@H](/C=C/[C@@H](O)CCc2ccccc2)[C@H](O)C[C@@H]1O [Bimatoprost] | greater than 65 °C | slightly soluble | –
2 | – | – | – | CCCCC[C@H](O)/C=C/[C@H]1[C@H](O)CC(=O)[C@@H]1CCCCCCC(=O)O [prostaglandin E1] | – | – | improvement in visual acuity
